ChEMBL document CHEMBL4392832, “Surveying heterocycles as amide bioisosteres within a series of mGlu7 NAMs: Discovery of VU6019278” (Bioorg Med Chem Lett, 2019)

Legend:
[1] = target: Metabotropic glutamate receptor 7 (Rattus norvegicus) (UniProt P35400); assay: (§1) Negative allosteric modulation of rat mGlu7 receptor expressed in HEK cells co-expressing Galpha15 assessed as minimum L-AP4 response by measuring reduction in calcium mobilization incubated for 142 secs prior to glutamate addition for 120 secs followed by L-AP4 addition and measured after 40 secs by Fluo-4 AM dye based fluorescence assay relative to L-AP4 alone; format: functional, cell-based; design: scale not given: the % may be the effect or the level left
Metabotropic glutamate receptor 7 (Rattus norvegicus), sequence (P35400 whole entry): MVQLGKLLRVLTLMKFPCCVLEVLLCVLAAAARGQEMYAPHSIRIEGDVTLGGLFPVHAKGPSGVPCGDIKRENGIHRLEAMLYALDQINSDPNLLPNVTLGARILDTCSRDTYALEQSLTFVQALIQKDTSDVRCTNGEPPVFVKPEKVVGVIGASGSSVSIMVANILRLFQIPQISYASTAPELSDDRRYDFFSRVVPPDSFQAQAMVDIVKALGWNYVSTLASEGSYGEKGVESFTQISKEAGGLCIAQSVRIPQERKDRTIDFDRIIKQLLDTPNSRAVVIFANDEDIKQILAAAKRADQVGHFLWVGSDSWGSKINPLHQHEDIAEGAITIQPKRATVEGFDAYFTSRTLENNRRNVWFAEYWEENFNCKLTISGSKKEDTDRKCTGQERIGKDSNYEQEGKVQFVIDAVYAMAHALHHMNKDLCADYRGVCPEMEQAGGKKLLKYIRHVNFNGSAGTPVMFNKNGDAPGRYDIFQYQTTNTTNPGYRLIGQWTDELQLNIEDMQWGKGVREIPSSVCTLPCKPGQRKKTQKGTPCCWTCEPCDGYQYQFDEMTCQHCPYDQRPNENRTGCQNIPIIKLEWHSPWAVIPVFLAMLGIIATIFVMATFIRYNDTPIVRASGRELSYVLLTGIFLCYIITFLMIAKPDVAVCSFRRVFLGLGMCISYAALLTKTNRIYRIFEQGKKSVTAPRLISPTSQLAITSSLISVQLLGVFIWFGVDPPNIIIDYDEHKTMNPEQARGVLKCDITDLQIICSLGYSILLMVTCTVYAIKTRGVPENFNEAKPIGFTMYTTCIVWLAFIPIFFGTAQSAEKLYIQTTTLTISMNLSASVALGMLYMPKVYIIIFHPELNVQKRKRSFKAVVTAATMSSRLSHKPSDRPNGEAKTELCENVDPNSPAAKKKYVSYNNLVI

[2] = target: Metabotropic glutamate receptor 7 (Rattus norvegicus, UniProt P35400); assay: as §1, with “as” for “as minimum L-AP4 response by measuring”, “assay” for “assay relative to L-AP4 alone”; format: functional, cell-based
Metabotropic glutamate receptor 7, sequence (P35400 whole entry): as above

[3] = target: Metabotropic glutamate receptor 4 (Homo sapiens, UniProt Q14833); assay: Negative allosteric modulation of mGlu4 receptor (unknown origin)
Metabotropic glutamate receptor 4, sequence (Q14833 whole entry): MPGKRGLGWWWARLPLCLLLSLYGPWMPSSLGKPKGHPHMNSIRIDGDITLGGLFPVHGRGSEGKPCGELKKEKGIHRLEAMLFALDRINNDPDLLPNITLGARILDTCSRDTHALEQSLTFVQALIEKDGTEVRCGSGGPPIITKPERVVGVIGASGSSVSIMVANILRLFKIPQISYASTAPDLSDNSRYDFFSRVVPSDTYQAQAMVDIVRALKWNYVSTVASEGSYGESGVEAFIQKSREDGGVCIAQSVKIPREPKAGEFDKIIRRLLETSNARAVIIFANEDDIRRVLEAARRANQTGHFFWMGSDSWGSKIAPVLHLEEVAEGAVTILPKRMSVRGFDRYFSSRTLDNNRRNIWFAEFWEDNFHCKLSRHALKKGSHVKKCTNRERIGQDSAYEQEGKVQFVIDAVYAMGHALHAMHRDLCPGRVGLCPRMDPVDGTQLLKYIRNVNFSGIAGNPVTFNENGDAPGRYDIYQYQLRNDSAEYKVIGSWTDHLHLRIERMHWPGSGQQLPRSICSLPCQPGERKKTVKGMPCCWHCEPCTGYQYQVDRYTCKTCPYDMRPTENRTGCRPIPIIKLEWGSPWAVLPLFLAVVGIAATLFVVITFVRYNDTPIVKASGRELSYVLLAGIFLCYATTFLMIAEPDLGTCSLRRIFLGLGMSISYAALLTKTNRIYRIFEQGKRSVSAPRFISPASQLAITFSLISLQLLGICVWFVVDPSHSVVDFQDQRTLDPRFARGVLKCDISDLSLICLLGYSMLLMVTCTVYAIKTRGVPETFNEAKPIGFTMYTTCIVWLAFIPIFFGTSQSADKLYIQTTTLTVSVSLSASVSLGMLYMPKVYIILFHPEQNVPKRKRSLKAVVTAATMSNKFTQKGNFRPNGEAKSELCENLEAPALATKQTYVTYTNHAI

[4] = target: Metabotropic glutamate receptor 6 (Homo sapiens, UniProt O15303); assay: Negative allosteric modulation of mGlu6 receptor (unknown origin)
Metabotropic glutamate receptor 6, sequence (O15303 whole entry): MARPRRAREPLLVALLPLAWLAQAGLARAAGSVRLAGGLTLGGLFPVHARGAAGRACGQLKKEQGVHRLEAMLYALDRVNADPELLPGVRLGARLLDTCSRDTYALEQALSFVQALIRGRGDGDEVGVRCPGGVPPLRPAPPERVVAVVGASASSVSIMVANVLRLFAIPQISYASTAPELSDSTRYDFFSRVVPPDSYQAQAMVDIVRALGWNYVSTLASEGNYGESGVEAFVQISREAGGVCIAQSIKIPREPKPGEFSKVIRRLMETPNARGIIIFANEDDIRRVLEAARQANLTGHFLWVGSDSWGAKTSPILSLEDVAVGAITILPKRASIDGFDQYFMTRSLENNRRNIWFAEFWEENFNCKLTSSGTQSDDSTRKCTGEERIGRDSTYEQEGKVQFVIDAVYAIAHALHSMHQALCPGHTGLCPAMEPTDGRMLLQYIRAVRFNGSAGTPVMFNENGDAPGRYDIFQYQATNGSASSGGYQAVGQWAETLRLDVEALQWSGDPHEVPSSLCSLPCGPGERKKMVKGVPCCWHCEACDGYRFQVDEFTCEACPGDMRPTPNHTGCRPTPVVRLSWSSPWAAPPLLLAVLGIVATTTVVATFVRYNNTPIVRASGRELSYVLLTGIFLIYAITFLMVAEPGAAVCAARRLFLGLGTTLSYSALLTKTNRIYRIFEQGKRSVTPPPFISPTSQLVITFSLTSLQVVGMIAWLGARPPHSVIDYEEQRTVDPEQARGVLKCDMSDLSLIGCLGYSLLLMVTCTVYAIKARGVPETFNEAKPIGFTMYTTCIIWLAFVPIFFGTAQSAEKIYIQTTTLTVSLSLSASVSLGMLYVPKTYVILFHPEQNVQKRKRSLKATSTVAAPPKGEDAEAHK

[5] = Protein binding in rat plasma assessed as unbound fraction at 5 uM measured after 4 hrs by LC-MS/MS analysis; format: ADME, cell-free
[6] = Free drug level in Sprague-Dawley rat brain at 0.2 mg/kg, iv via cassette dosing measured after 0.25 hrs by LC-MS/MS analysis; format: ADME, organism-based; conditions: in vivo
[7] = target: Metabotropic glutamate receptor 8 (Homo sapiens, UniProt O00222); assay: Negative allosteric modulation of mGlu8 receptor (unknown origin)
[8] = Brain to plasma permeability coefficient, Kp of compound in rat; format: ADME, cell-free
[9] = Total drug level in Sprague-Dawley rat brain at 0.2 mg/kg, iv via cassette dosing measured after 0.25 hrs by LC-MS/MS analysis; format: ADME, organism-based; conditions: read-out: Drug uptake
[10] = Protein binding in rat brain assessed as unbound fraction at 5 uM measured after 6 hrs by LC-MS/MS analysis; format: ADME, tissue-based
[11] = target: Metabotropic glutamate receptor 3 (Homo sapiens, UniProt Q14832); assay: Negative allosteric modulation of mGlu3 receptor (unknown origin)
Metabotropic glutamate receptor 3, sequence (Q14832 whole entry): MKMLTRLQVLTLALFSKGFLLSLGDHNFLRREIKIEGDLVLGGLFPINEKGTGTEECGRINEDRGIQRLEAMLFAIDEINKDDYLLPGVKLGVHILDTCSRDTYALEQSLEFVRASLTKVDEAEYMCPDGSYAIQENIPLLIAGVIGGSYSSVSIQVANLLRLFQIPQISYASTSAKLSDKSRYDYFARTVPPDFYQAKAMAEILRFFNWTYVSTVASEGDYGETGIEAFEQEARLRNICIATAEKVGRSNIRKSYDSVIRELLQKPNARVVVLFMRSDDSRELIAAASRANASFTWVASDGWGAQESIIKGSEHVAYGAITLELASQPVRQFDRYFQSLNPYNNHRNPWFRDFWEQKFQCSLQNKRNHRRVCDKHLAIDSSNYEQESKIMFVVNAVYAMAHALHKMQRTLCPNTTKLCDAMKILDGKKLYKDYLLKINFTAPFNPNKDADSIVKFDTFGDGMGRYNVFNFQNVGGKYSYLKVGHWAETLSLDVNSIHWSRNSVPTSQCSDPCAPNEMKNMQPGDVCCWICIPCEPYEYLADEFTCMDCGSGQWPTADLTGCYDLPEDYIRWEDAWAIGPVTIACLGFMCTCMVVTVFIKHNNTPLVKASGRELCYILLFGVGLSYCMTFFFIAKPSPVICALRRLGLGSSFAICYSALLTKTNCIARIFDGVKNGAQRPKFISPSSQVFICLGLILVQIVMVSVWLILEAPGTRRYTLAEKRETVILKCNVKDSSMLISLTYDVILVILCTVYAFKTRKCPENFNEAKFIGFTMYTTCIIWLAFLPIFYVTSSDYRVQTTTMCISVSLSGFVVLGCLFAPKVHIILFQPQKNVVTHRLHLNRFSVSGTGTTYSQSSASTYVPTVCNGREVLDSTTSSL

[12] = target: Metabotropic glutamate receptor 5 (Homo sapiens, UniProt P41594); assay: Negative allosteric modulation of mGlu5 receptor (unknown origin)
Metabotropic glutamate receptor 5, sequence (P41594 whole entry): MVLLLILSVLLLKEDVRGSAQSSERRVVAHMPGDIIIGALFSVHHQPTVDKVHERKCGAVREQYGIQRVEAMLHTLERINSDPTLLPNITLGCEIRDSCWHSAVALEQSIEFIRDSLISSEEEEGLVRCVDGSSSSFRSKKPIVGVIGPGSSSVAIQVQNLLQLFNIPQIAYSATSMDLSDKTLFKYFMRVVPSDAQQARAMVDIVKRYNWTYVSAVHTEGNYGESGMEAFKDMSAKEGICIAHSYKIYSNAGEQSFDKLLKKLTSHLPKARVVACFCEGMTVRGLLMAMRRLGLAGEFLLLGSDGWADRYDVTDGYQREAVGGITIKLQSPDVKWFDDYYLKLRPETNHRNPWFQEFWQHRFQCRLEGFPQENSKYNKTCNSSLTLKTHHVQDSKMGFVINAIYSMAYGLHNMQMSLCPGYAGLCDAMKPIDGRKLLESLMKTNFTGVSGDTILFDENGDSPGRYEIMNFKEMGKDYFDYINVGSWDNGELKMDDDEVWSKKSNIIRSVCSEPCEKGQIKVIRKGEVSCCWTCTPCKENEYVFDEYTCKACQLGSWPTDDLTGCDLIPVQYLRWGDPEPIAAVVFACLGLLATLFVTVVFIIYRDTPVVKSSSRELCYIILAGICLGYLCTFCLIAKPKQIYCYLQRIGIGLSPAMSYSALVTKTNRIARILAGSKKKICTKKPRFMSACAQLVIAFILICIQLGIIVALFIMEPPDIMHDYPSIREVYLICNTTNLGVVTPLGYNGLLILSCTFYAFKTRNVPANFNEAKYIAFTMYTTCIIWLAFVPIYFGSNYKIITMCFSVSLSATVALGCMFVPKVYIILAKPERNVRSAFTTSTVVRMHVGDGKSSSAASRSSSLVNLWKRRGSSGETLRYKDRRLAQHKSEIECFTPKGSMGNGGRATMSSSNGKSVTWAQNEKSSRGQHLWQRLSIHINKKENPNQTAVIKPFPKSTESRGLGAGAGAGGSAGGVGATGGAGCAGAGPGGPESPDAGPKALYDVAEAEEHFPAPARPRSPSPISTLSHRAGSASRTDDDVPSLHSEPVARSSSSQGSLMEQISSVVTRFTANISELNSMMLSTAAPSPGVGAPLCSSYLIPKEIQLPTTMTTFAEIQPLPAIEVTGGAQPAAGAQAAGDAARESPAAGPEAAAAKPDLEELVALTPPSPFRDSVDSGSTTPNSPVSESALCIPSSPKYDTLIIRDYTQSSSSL

[13] = target: Metabotropic glutamate receptor 1 (Homo sapiens, UniProt Q13255); assay: Negative allosteric modulation of mGlu1 receptor (unknown origin)
[14] = target: Metabotropic glutamate receptor 2 (Homo sapiens, UniProt Q14416); assay: Negative allosteric modulation of mGlu2 receptor (unknown origin)
[15] = Unbound brain to plasma concentration ratio in rat; format: ADME, cell-free; conditions: read-out: K(p,uu,brain)

Row | Activity [1] [%] | IC50 ([2]; read-out: IC50) [µM] | Compound | other results
1 | 20.6 | – | COc1ccc(-c2nnc(-c3cc(OC(F)(F)F)ccc3-c3ccnn3C)o2)cc1OC | –
2 | 21.1 | 7.63 | COc1ccc(-c2coc(-c3cc(OC(F)(F)F)ccc3-n3cncn3)n2)cc1OC | –
3 | – | > 30 | COc1ccc(-c2nnc(-c3cc(OC(F)(F)F)ccc3N3CCN(C)CC3)o2)cc1OC | –
4 | 65.4 | 5.86 | COc1ccc(-c2nnc(-c3cc(OC(F)(F)F)ccc3N3CCCCC3)o2)cc1OC | –
5 | – | > 30 | COc1ccc(-c2nnc(-c3cc(OC(F)(F)F)ccc3-n3cncn3)o2)cn1 | –
6 | – | – | COc1ccc(-c2nnc3sc(-c4cc(OC(F)(F)F)ccc4-n4cncn4)nn23)cc1OC | IC50 [2]: Not Active
7 | 41.5 | ≥ 10 | COc1ccc(-c2nsc(-c3cc(OC(F)(F)F)ccc3-n3cncn3)n2)cc1OC | –
8 | – | > 30 | COc1ccc(-c2nnc(-c3cc(OC(F)(F)F)ccc3-c3cccnc3)o2)cc1OC | –
9 | 13.5 | 4.38 | COc1cc(-c2nnc(-c3cc(OC(F)(F)F)ccc3-n3cncn3)o2)cnc1OC | –
10 | 72.8 | ≥ 10 | COc1cc(F)c(-c2nnc(-c3cc(OC(F)(F)F)ccc3-n3cncn3)o2)cc1OC | –
11 | 27.9 | ≥ 10 | COc1ccc(-c2nnc(-c3cc(OC(F)(F)F)ccc3-c3ccncc3)o2)cc1OC | –
12 | – | – | COc1ccc(-c2ccc3nnc(-c4cc(OC(F)(F)F)ccc4-n4cncn4)n3n2)cc1OC | IC50 [2]: Not Active
13 | – | > 30 | COc1ccc(-c2nnc(-c3cc(OC(F)(F)F)ccc3-c3cnn(C)c3)o2)cc1OC | –
14 | – | – | COc1ccc(-c2ccn3c(-c4cc(OC(F)(F)F)ccc4-n4cncn4)nnc3c2)cc1OC | IC50 [2]: Not Active
15 | 6.3 | 0.57 | COc1ccc(-c2nnc(-c3cc(OC(F)(F)F)ccc3-n3ccnc3)o2)cc1OC | IC50 [3]: > 10 µM; IC50 [4]: > 10 µM; Fu ([5]; 4 h, 5 µM): 0.1; Drug uptake(free) [6]: 6 nM; IC50 [7]: > 10 µM; Kp [8]: 4.9; concentration at 0.25 h [9]: 456 nM; fraction unbound at 6 h, 5 µM [10]: 0.013; IC50 [11]: > 10 µM; IC50 [12]: > 10 µM; IC50 [13]: > 10 µM; IC50 [14]: > 10 µM; Kp uu [15]: 0.65
16 | – | > 30 | FC(F)(F)Oc1ccc(-n2cncn2)c(-c2nnc(-c3ccc4c(c3)OCCO4)o2)c1 | –
17 | 49.2 | 3.53 | COc1ccc(-c2nnc(-c3cc(OC(F)(F)F)ccc3-c3cscn3)o2)cc1OC | –
18 | 68.9 | ≥ 10 | COc1cc(-c2nnc(-c3cc(OC(F)(F)F)ccc3-n3cncn3)o2)ccn1 | –
19 | 13.2 | 1.31 | COc1cc(-c2nnc(-c3cc(OC(F)(F)F)ccc3-n3cncn3)o2)ccc1OCC1CC1 | fraction unbound at 4 h, 5 µM [5]: 0.038; Kp [8]: 2; Kp uu [15]: 0.43

Row | Activity [1] [%] | IC50 ([2]; read-out: IC50) [µM] | Compound | other results
20 | 32.4 | ≥ 10 | COc1ccc(-c2cn(-c3cc(OC(F)(F)F)ccc3-n3cncn3)nn2)cc1OC | –
21 | – | > 30 | COc1ccc(-c2nnc(-c3cc(OC(F)(F)F)ccc3-n3cncn3)o2)cc1F | –
22 | 10.4 | 1.55 | COc1cc(-c2nnc(-c3cc(OC(F)(F)F)ccc3-n3cncn3)o2)ccc1OC1CCC1 | –
23 | 23.1 | 1.18 | COc1ccc(-c2nnc(-c3cc(OC(F)(F)F)ccc3N3CCOCC3)o2)cc1OC | –
24 | 14.5 | 1.32 | COc1ccc(-c2noc(-c3cc(OC(F)(F)F)ccc3-n3cncn3)n2)cc1OC | –
25 | 7.1 | 1.58 | COc1ccc(-c2nnc(-c3cc(OC(F)(F)F)ccc3-n3cncn3)o2)cc1OC | –
26 | 36.5 | 2.08 | COc1ccc(-c2cnc(-c3cc(OC(F)(F)F)ccc3-n3cncn3)o2)cc1OC | –
27 | – | > 30 | COc1ccc(-c2nnc(-c3cc(OC(F)(F)F)ccc3-n3cncn3)o2)c(F)c1F | –
28 | 8.4 | 2.39 | COc1ccc(-c2nc(-c3cc(OC(F)(F)F)ccc3-n3cncn3)no2)cc1OC | –
29 | – | > 30 | COc1ccc(-c2nnc(-c3cc(OC(F)(F)F)ccc3N3CCCC3)o2)cc1OC | –
30 | – | – | COc1ccc(-c2nn3cc(-c4cc(OC(F)(F)F)ccc4-n4cncn4)nc3s2)cc1OC | IC50 [2]: Not Active
31 | 27.6 | ≥ 10 | COc1ccc(-c2nnc(-c3cc(OC(F)(F)F)ccc3-c3ccnnc3)o2)cc1OC | –
32 | – | > 30 | COc1cc(-c2nnc(-c3cc(OC(F)(F)F)ccc3-n3cncn3)o2)cc(F)c1OC | –
33 | 10.3 | 2.24 | COc1ccc(-c2nnc(-c3cc(OC(F)(F)F)ccc3-c3cn[nH]c3)o2)cc1OC | –
34 | – | > 30 | FC(F)(F)Oc1ccc(-n2cncn2)c(-c2nnc(-c3ccc4c(c3)OC(F)(F)O4)o2)c1 | –
35 | – | – | COc1ccc(-c2nnnn2-c2cc(OC(F)(F)F)ccc2-n2cncn2)cc1OC | IC50 [2]: Not Active
36 | 34.2 | ≥ 10 | COc1ccc(-c2c[nH]c(-c3cc(OC(F)(F)F)ccc3-n3cncn3)n2)cc1OC | –
37 | – | > 30 | FC(F)(F)Oc1ccc(-n2cncn2)c(-c2nnc(-c3ccc4c(c3)OCO4)o2)c1 | –
38 | – | > 30 | COc1cc(-c2nnc(-c3cc(OC(F)(F)F)ccc3-n3cncn3)o2)ccc1F | –
